Assay results as given in PubChem BioAssay AID1259407 (Chemical Carcinogenesis Research Information System (CCRIS), 2018).
Active and inactive are the calls of the source. The rule behind the calls is not given here.

Test system: CCRIS mutagenicity, Ames/micronucleus/aberration tests
Assay: CCRIS mutagenicity studies
[1] = Test System: AMES SALMONELLA TYPHIMURIUM, Strain/Indicator: TA97, Metabolic Activation: HAMSTER, LIVER, S-9, AROCLOR 1254 (10 OR 30%), Method: PREINCUBATION
[2] = Test System: AMES SALMONELLA TYPHIMURIUM, Strain/Indicator: TA97, Metabolic Activation: NONE, Method: PREINCUBATION
[3] = Test System: AMES SALMONELLA TYPHIMURIUM, Strain/Indicator: TA97, Metabolic Activation: RAT, LIVER, S-9, AROCLOR 1254 (10 OR 30%), Method: PREINCUBATION
[4] = Test System: AMES SALMONELLA TYPHIMURIUM, Strain/Indicator: TA98, Metabolic Activation: HAMSTER, LIVER, S-9, AROCLOR 1254 (10 OR 30%), Method: PREINCUBATION
[5] = Test System: AMES SALMONELLA TYPHIMURIUM, Strain/Indicator: TA98, Metabolic Activation: NONE, Method: PREINCUBATION
[6] = Test System: AMES SALMONELLA TYPHIMURIUM, Strain/Indicator: TA98, Metabolic Activation: NONE, Method: STANDARD PLATE
[7] = Test System: AMES SALMONELLA TYPHIMURIUM, Strain/Indicator: TA98, Metabolic Activation: RAT, LIVER, S-9, AROCLOR 1254 (10 OR 30%), Method: PREINCUBATION
[8] = Test System: AMES SALMONELLA TYPHIMURIUM, Strain/Indicator: TA100, Metabolic Activation: HAMSTER, LIVER, S-9, AROCLOR 1254 (10 OR 30%), Method: PREINCUBATION
[9] = Test System: AMES SALMONELLA TYPHIMURIUM, Strain/Indicator: TA100, Metabolic Activation: NONE, Method: PREINCUBATION
[10] = Test System: AMES SALMONELLA TYPHIMURIUM, Strain/Indicator: TA100, Metabolic Activation: RAT, LIVER, S-9, AROCLOR 1254 (10 OR 30%), Method: PREINCUBATION
[11] = Test System: AMES SALMONELLA TYPHIMURIUM, Strain/Indicator: TA1535, Metabolic Activation: HAMSTER, LIVER, S-9, AROCLOR 1254 (10 OR 30%), Method: PREINCUBATION
[12] = Test System: AMES SALMONELLA TYPHIMURIUM, Strain/Indicator: TA1535, Metabolic Activation: NONE, Method: PREINCUBATION
[13] = Test System: AMES SALMONELLA TYPHIMURIUM, Strain/Indicator: TA1535, Metabolic Activation: NONE, Method: STANDARD PLATE
[14] = Test System: AMES SALMONELLA TYPHIMURIUM, Strain/Indicator: TA1535, Metabolic Activation: RAT, LIVER, S-9, AROCLOR 1254 (10 OR 30%), Method: PREINCUBATION
[15] = Test System: AMES SALMONELLA TYPHIMURIUM, Strain/Indicator: TA1537, Metabolic Activation: NONE, Method: STANDARD PLATE
[16] = Test System: AMES SALMONELLA TYPHIMURIUM, Strain/Indicator: TA100, Metabolic Activation: RAT, LIVER, S-9, AROCLOR 1254, Method: STANDARD PLATE

SMILES	mutagenic call [1]	mutagenic call [2]	mutagenic call [3]	mutagenic call [4]	mutagenic call [5]	mutagenic call [6]	mutagenic call [7]	mutagenic call [8]	mutagenic call [9]	mutagenic call [10]	mutagenic call [11]	mutagenic call [12]	mutagenic call [13]	mutagenic call [14]	mutagenic call [15]	mutagenic call [16]	also measured
CCOP(=S)(OCC)Oc1cc(C)nc(C(C)C)n1	inactive; negative	inactive; negative	inactive; negative	inactive; negative	inactive; negative	inactive; negative	inactive; negative	inactive; negative	inactive; negative	inactive; negative	inactive; negative	inactive; negative	inactive; negative	inactive; negative	inactive; negative	–	mutagenic call (Test System: AMES SALMONELLA TYPHIMURIUM, Strain/Indicator: TA98, Metabolic Activation: S-9, NADPH GENERATING SYSTEM, Method: STANDARD PLATE): inactive; negative; mutagenic call (Test System: AMES SALMONELLA TYPHIMURIUM, Strain/Indicator: TA102, Metabolic Activation: NONE, Method: STANDARD PLATE): inactive; negative; mutagenic call (Test System: AMES SALMONELLA TYPHIMURIUM, Strain/Indicator: TA102, Metabolic Activation: S-9, NADPH GENERATING SYSTEM, Method: STANDARD PLATE): inactive; negative; mutagenic call (Test System: AMES SALMONELLA TYPHIMURIUM, Strain/Indicator: TA1535, Metabolic Activation: S-9, NADPH GENERATING SYSTEM, Method: STANDARD PLATE): inactive; negative; mutagenic call (Test System: AMES SALMONELLA TYPHIMURIUM, Strain/Indicator: TA1537, Metabolic Activation: S-9, NADPH GENERATING SYSTEM, Method: STANDARD PLATE): inactive; negative; mutagenic call (Test System: E. COLI, Strain/Indicator: WP2 UVRA, Metabolic Activation: HAMSTER, LIVER, S-9, AROCLOR 1254, Method: STANDARD PLATE): inactive; negative; mutagenic call (Test System: E. COLI, Strain/Indicator: WP2 UVRA, Metabolic Activation: HAMSTER, LIVER, S-9, Method: STANDARD PLATE): inactive; negative; mutagenic call (Test System: E. COLI, Strain/Indicator: WP2 UVRA, Metabolic Activation: MOUSE, LIVER, S-9, AROCLOR 1254, Method: STANDARD PLATE): inactive; negative; mutagenic call (Test System: E. COLI, Strain/Indicator: WP2 UVRA, Metabolic Activation: MOUSE, LIVER, S-9, Method: STANDARD PLATE): inactive; negative; mutagenic call (Test System: E. COLI, Strain/Indicator: WP2 UVRA, Metabolic Activation: NONE, Method: STANDARD PLATE): inactive; negative; mutagenic call (Test System: E. COLI, Strain/Indicator: WP2 UVRA, Metabolic Activation: RAT, LIVER, S-9, AROCLOR 1254, Method: STANDARD PLATE): inactive; negative; mutagenic call (Test System: E. COLI, Strain/Indicator: WP2 UVRA, Metabolic Activation: RAT, LIVER, S-9, Method: STANDARD PLATE): inactive; negative
CC(=O)c1ccccn1	–	–	–	–	–	inactive; negative	–	–	–	–	–	–	inactive; negative	–	inactive; negative	inactive; negative	mutagenic call (Test System: AMES SALMONELLA TYPHIMURIUM, Strain/Indicator: TA98, Metabolic Activation: HAMSTER, LIVER, S-9, AROCLOR 1254, Method: STANDARD PLATE): inactive; negative; mutagenic call (Test System: AMES SALMONELLA TYPHIMURIUM, Strain/Indicator: TA98, Metabolic Activation: RAT, LIVER, S-9, AROCLOR 1254, Method: STANDARD PLATE): inactive; negative; mutagenic call (Test System: AMES SALMONELLA TYPHIMURIUM, Strain/Indicator: TA100, Metabolic Activation: HAMSTER, LIVER, S-9, AROCLOR 1254, Method: STANDARD PLATE): inactive; negative; mutagenic call (Test System: AMES SALMONELLA TYPHIMURIUM, Strain/Indicator: TA100, Metabolic Activation: NONE, Method: STANDARD PLATE): inactive; negative; mutagenic call (Test System: AMES SALMONELLA TYPHIMURIUM, Strain/Indicator: TA1535, Metabolic Activation: HAMSTER, LIVER, S-9, AROCLOR 1254, Method: STANDARD PLATE): inactive; negative; mutagenic call (Test System: AMES SALMONELLA TYPHIMURIUM, Strain/Indicator: TA1535, Metabolic Activation: RAT, LIVER, S-9, AROCLOR 1254, Method: STANDARD PLATE): inactive; negative; mutagenic call (Test System: AMES SALMONELLA TYPHIMURIUM, Strain/Indicator: TA1537, Metabolic Activation: HAMSTER, LIVER, S-9, AROCLOR 1254, Method: STANDARD PLATE): inactive; negative; mutagenic call (Test System: AMES SALMONELLA TYPHIMURIUM, Strain/Indicator: TA1537, Metabolic Activation: RAT, LIVER, S-9, AROCLOR 1254, Method: STANDARD PLATE): inactive; negative; mutagenic call (Test System: AMES SALMONELLA TYPHIMURIUM, Strain/Indicator: TA1538, Metabolic Activation: HAMSTER, LIVER, S-9, AROCLOR 1254, Method: STANDARD PLATE): inactive; negative; mutagenic call (Test System: AMES SALMONELLA TYPHIMURIUM, Strain/Indicator: TA1538, Metabolic Activation: NONE, Method: STANDARD PLATE): inactive; negative; mutagenic call (Test System: AMES SALMONELLA TYPHIMURIUM, Strain/Indicator: TA1538, Metabolic Activation: RAT, LIVER, S-9, AROCLOR 1254, Method: STANDARD PLATE): inactive; negative; mutagenic call (Test System: MOUSE LYMPHOMA, Strain/Indicator: L5178Y (TK+/TK-), Metabolic Activation: NONE, Method: SUSPENSION/PLATE): active; positive. reevaluation of results: positive; mutagenic call (Test System: MOUSE LYMPHOMA, Strain/Indicator: L5178Y (TK+/TK-), Metabolic Activation: RAT, LIVER, S-9, AROCLOR 1254, Method: SUSPENSION/PLATE): active; positive. reevaluation of results: inconclusive
O=C1CC2=C(CCCC2)c2c1c1c(c3c2=CC=C3)C=CC=1	–	–	–	–	–	–	–	–	–	–	–	–	–	–	–	inactive; negative	–
Oc1c(Cl)c(Cl)c(O)c(Cl)c1Cl	–	–	–	–	–	–	–	–	–	–	–	–	–	–	–	–	mutagenic call (Test System: CHINESE HAMSTER V79 CELLS, Strain/Indicator: V79 CELLS (HPRT)/6-THIOGUANINE, Metabolic Activation: NONE, Method: PREINCUBATION): active; positive; mutagenic call (Test System: CHINESE HAMSTER V-79, Strain/Indicator: V-79/6-THIOGUANINE, Metabolic Activation: NONE, Method: SUSPENSION/PLATE): active; positive; mutagenic call (Test System: CHINESE HAMSTER V-79, Strain/Indicator: V-79/OUABAIN, Metabolic Activation: NONE, Method: SUSPENSION/PLATE): inactive; negative; mutagenic call (Test System: UDS HUMAN FIBROBLASTS, Strain/Indicator: THY INCORP, Metabolic Activation: NONE, Method: AUTORADIOGRAPHY): active; positive
COC(=O)c1ccc(C=O)cc1	inactive; negative	inactive; negative	inactive; negative	inactive; negative	inactive; negative	–	inactive; negative	inactive; negative	inactive; negative	inactive; negative	inactive; negative	inactive; negative	–	inactive; negative	–	–	–
